From patent US20240132484A1, “BROAD SPECTRUM ANTIVIRAL COMPOUNDS TARGETING THE SKI COMPLEX” (priority 2020, published 2024)
Several values for one entry are separate records, joined by “and”; a condition that tells them apart may be missing. Equal entries are not always repeated. Where two headings read alike, the source gives them in different places.

What was measured:
SARS2 = assay type: cell-based, SARS-CoV-2; details: for Infection Data, Average, Mean percentage infection relative to DMSO control: Average of Exp 1 (SMW491) and Exp 2 (SMW492); for Infection Data, Percentage Infection Relative to Appropriate DMSO Control: single well, avg background subtraction
cells (nuclei count) = details: for Toxicity Data, Average, Mean percentage relative to DMSO control: Average of Exp 1 (SMW491) and Exp 2 (SMW492); for Toxicity Data, Percentage Relative to Appropriate DMSO Control: single well

COc1ccc(C2NC(=O)NC(C)=C2C(=O)NCc2ccccc2)cc1OC (centres unmarked) [SILCS48]
Infection Data, Average, Mean percentage infection relative to DMSO control (SARS2; n=4, 1 uM): 71.69%
Infection Data, Average, Mean percentage infection relative to DMSO control (SARS2; n=4, 5 uM): 75.19%
Infection Data, Average, Mean percentage infection relative to DMSO control (SARS2; n=4, 10 uM): 85.09%
Infection Data, Average, Mean percentage infection relative to DMSO control (SARS2; n=4, 25 uM): 100.34%
Infection Data, Average, Mean percentage infection relative to DMSO control (SARS2; n=4, 50 uM): 160.04%
Infection Data, Percentage Infection Relative to Appropriate DMSO Control (SARS2; Exp 1 (SMW491), 1 uM): 87.03% and 82.70%
Infection Data, Percentage Infection Relative to Appropriate DMSO Control (SARS2; Exp 1 (SMW491), 5 uM): 70.35% and 83.94%
Infection Data, Percentage Infection Relative to Appropriate DMSO Control (SARS2; Exp 1 (SMW491), 10 uM): 96.64% and 110.53%
Infection Data, Percentage Infection Relative to Appropriate DMSO Control (SARS2; Exp 1 (SMW491), 25 uM): 102.87% and 119.89%
Infection Data, Percentage Infection Relative to Appropriate DMSO Control (SARS2; Exp 1 (SMW491), 50 uM): 159.63% and 145.37%
Infection Data, Percentage Infection Relative to Appropriate DMSO Control (SARS2; Exp 2 (SMW492), 1 uM): 59.24% and 57.80%
Infection Data, Percentage Infection Relative to Appropriate DMSO Control (SARS2; Exp 2 (SMW492), 5 uM): 84.51% and 61.96%
Infection Data, Percentage Infection Relative to Appropriate DMSO Control (SARS2; Exp 2 (SMW492), 10 uM): 49.42% and 83.79%
Infection Data, Percentage Infection Relative to Appropriate DMSO Control (SARS2; Exp 2 (SMW492), 25 uM): 97.57% and 81.03%
Infection Data, Percentage Infection Relative to Appropriate DMSO Control (SARS2; Exp 2 (SMW492), 50 uM): 177.82% and 157.32%
Percentage Inhibition Average 1 μM (SARS2; SARS2, 1 μM): 28.31%
Screening data (Relative infection to DMSO controls) Average 1 μM (SARS2; SARS2, 1 μM, 100=DMSO control): 71.69
Percentage Inhibition Average 5 μM (SARS2; SARS2, 5 μM): 24.81%
Screening data (Relative infection to DMSO controls) Average 5 μM (SARS2; SARS2, 5 μM, 100=DMSO control): 75.19
Percentage Inhibition Average 10 μM (SARS2; SARS2, 10 μM): 14.91%
Screening data (Relative infection to DMSO controls) Average 10 μM (SARS2; SARS2, 10 μM, 100=DMSO control): 85.09
Percentage Inhibition Average 25 μM (SARS2; SARS2, 25 μM): −0.34%
Screening data (Relative infection to DMSO controls) Average 25 μM (SARS2; SARS2, 25 μM, 100=DMSO control): 100.34
Percentage Inhibition Average 50 μM (SARS2; SARS2, 50 μM): −60.04%
Screening data (Relative infection to DMSO controls) Average 50 μM (SARS2; SARS2, 50 μM, 100=DMSO control): 160.04
Average (relative infection to DMSO over the 5 tested concentrations) (SARS2; SARS2, average over 1 to 50 uM, 100=DMSO control): 98.47
Relative cell count to DMSO controls, Average 1 μM (cells (nuclei count); 1 μM, toxicity data, 100=DMSO control): 119.19
Relative cell count to DMSO controls, Average 5 μM (cells (nuclei count); 5 μM, toxicity data, 100=DMSO control): 115.84
Relative cell count to DMSO controls, Average 10 μM (cells (nuclei count); 10 μM, toxicity data, 100=DMSO control): 107.43
Relative cell count to DMSO controls, Average 25 μM (cells (nuclei count); 25 μM, toxicity data, 100=DMSO control): 102.04
Relative cell count to DMSO controls, Average 50 μM (cells (nuclei count); 50 μM, toxicity data, 100=DMSO control): 77.81
Toxicity Data, Average, Mean percentage relative to DMSO control (cells (nuclei count); n=4, 1 uM): 119.19%
Toxicity Data, Average, Mean percentage relative to DMSO control (cells (nuclei count); n=4, 5 uM): 115.84%
Toxicity Data, Average, Mean percentage relative to DMSO control (cells (nuclei count); n=4, 10 uM): 107.43%
Toxicity Data, Average, Mean percentage relative to DMSO control (cells (nuclei count); n=4, 25 uM): 102.04%
Toxicity Data, Average, Mean percentage relative to DMSO control (cells (nuclei count); n=4, 50 uM): 77.81%
Toxicity Data, Percentage Relative to Appropriate DMSO Control (cells (nuclei count); Exp 1 (SMW491), 1 uM): 112% and 102%
Toxicity Data, Percentage Relative to Appropriate DMSO Control (cells (nuclei count); Exp 1 (SMW491), 5 uM): 108% and 106%
Toxicity Data, Percentage Relative to Appropriate DMSO Control (cells (nuclei count); Exp 1 (SMW491), 10 uM): 86% and 88%
Toxicity Data, Percentage Relative to Appropriate DMSO Control (cells (nuclei count); Exp 1 (SMW491), 25 uM): 95% and 88%
Toxicity Data, Percentage Relative to Appropriate DMSO Control (cells (nuclei count); Exp 1 (SMW491), 50 uM): 79% and 77%
Toxicity Data, Percentage Relative to Appropriate DMSO Control (cells (nuclei count); Exp 2 (SMW492), 1 uM): 130% and 132%
Toxicity Data, Percentage Relative to Appropriate DMSO Control (cells (nuclei count); Exp 2 (SMW492), 5 uM): 115% and 135%
Toxicity Data, Percentage Relative to Appropriate DMSO Control (cells (nuclei count); Exp 2 (SMW492), 10 uM): 135% and 121%
Toxicity Data, Percentage Relative to Appropriate DMSO Control (cells (nuclei count); Exp 2 (SMW492), 25 uM): 109% and 116%
Toxicity Data, Percentage Relative to Appropriate DMSO Control (cells (nuclei count); Exp 2 (SMW492), 50 uM): 81% and 75%
Relative cell count to DMSO controls, Average (for correlation analysis) (cells (nuclei count); average value over the 5 tested concentrations (1 to 50 uM)): 104.46
